Source: US8247407B2, priority 2007, dated 2012)
Values joined by “and” are separate entries in the source; they are usually repeats but may differ in a detail not shown here. Equal values may be shown once. Where a name gives a salt, the structure may show the parent alone.

What was measured:
Type in all cases: in vivo, rat
[1] = test system: rats with alloxan diabetes; experiment: Hypoglycemic activity, alloxan diabetes model in rats (Example 1)
Experimental: The pharmaceutical compositions for determination of anti-diabetic action had the following composition: active compound—1 g, potato starch—1 g, water—100 ml.
(§1) The comparison of anti-diabetic action of compounds was carried out using a standard model of alloxan diabetes and metmorphin as a comparative drug. The alloxan diabetes was induced by a single subcutaneous injection of water solution of alloxan hydrate (ICN Biomedicals, USA) at a dose of 150 mg/kg to rats weighting 180-200 g that have fasted for 24 hours. The following animal groups were studied: intact rats, diabetic non-treated rats, diabetic rats receiving Polfa-Kutno Ltd.″ metmorphin daily (for 23 days, 200 mg/kg); diabetic rats receiving daily (for 20 days) the abovementioned pharmaceutical compositions containing, as an active components, the compounds described in this invention: MC-200-MC-225. The compounds were administered intragastrically once a day in starch gel at a dose of 50 mg/kg rat weight.
(§2) The experimental drug doses were selected assuming the expected therapeutic doses for man and previously determined toxic doses (LD50 of studied compounds was approximately 500-1,000 mg/kg). The metmorphin dose for rats was extrapolated from the therapeutic dose for man. Drug administration was started on the third day after alloxan injection when blood glucose level increased approximately 3-fold as compared to control value. Each group consisted of 20 animals of both genders.

[2] = test system: white rats with experimental diabetes (alloxan diabetes); experiment: Anti-diabetic, hypolipidemic and hypocholesteremic activity, alloxan diabetes model in rats (Example 2); details: compounds 50 mg/kg, metmorphin 200 mg/kg daily
Experimental: as §1, §2
Pharmaceutical compositions for determination of anti-diabetic action had the same composition as that given in Example I.
The comparison of the anti-diabetic action of compounds was carried out using a standard model of alloxan diabetes, as described in Example I, and metmorphin as a comparative drug.
In the course of experiment, the following parameters were recorded: animal general condition, water consumption, body mass, levels of glucose, total lipids, tri-glycerides, serum blood cholesterol, and glycosylated hemoglobin, using the generally accepted techniques (Laboratory methods of studies in clinical practice, V. V. Menshikov, Ed., Moscow, “Medicine”, 1987).

[3] = test system: pancreatic Langerhans islets of rats with alloxan diabetes; experiment: Histological examination of the pancreas of alloxan-diabetic rats (Example 3); details: in 20 days after treatment
Experimental: Histological examination of pancreatic structure was carried out using the haematoxylin-eosin and aldehyde fuchsine staining of pancreatic sections using standard techniques.

[4] = diabetic rats' blood, in 10 days, compounds 50 mg/kg intragastrically once a day in starch gel, metmorphin 200 mg/kg daily
[5] = diabetic rats' blood, in 20 days, compounds 50 mg/kg intragastrically once a day in starch gel, metmorphin 200 mg/kg daily

`CCOC(=O)c1c(CN2CCCC2)n(C)c2cc(-c3cccnc3)c3c(c12)CN(C)CO3` [MC-213, 9-carbethoxy-2,7-dimethyl-5-pyridine-3-yl-8-[(pyrrolidine-1-yl)methyl]-1,2,3,7-tetrahydro[1,3]oxazino [5,6-e] indole trihydrochloride] was tested, and the “Glucose content, mmol/l, in 10 days” value ([1]; rat, in vivo) was 5.8 ± 0.4 mmol/L, the “Glucose content, mmol/l, in 20 days” value ([1]; rat, in vivo) was 5.5 ± 0.3 mmol/L and the Body mass ([2]; in 10 days) was 185 ± 5 g. For the same compound, the Cholesterol ([2]; in 10 days) was 2.7 ± 0.5 mmol/L, the Daily water consumption ([2]; in 10 days) was 26 ± 5 mL and the Glucose ([2]; in 10 days) was 5.8 ± 0.3 mmol/L. For the same compound, the Glycosylated hemoglobin ([2]; in 10 days) was 6.4 ± 0.3 mol %, the “Percent of survived rats” value ([2]; in 10 days) was 90% and the Total lipids ([2]; in 10 days) was 10.5 ± 0.5 g/L. It also gave a Tri-glycerides ([2]; in 10 days) of 2.5 ± 0.3 mmol/L, a β-lipoproteins ([2]; in 10 days) of 2.2 ± 0.2 g/L and a Body mass ([2]; in 20 days) of 183 ± 10 g. The Cholesterol ([2]; in 20 days) was 1.5 ± 0.2 mmol/L, the Daily water consumption ([2]; in 20 days) was 25 ± 6 mL and the Glucose ([2]; in 20 days) was 5.5 ± 0.3 mmol/L. The Glycosylated hemoglobin ([2]; in 20 days) was 6.2 ± 0.5 mol %, the “Percent of survived rats” value ([2]; in 20 days) was 75% and the Total lipids ([2]; in 20 days) was 10.4 ± 1.0 g/L. For the same compound, the Tri-glycerides ([2]; in 20 days) was 1.7 ± 0.2 mmol/L and the β-lipoproteins ([2]; in 20 days) was 2.1 ± 0.2 g/L.
`CN(C)C(=N)N=C(N)N` [Metmorphin, reference compound] was tested, and the “Pancreatic Langerhans islet structure, aldehyde fuchsine staining” value ([3]; aldehyde fuchsine staining, magnification 20×7) was “Restoration of pancreatic Langerhans islet”, the “Pancreatic Langerhans islet structure, haematoxylin-eosin staining” value ([3]; haematoxylin-eosin staining, magnification 40×7) was “Restoration of pancreatic Langerhans islet” and the “Glucose content, mmol/l, in 10 days” value [1, 4] was 6.6 ± 0.3 mmol/L. The “Glucose content, mmol/l, in 20 days” value [1, 5] was 6.4 ± 0.3 mmol/L, the Body mass ([2]; in 10 days) was 185 ± 5 g and the Cholesterol ([2]; in 10 days) was 2.6 ± 0.3 mmol/L and 2.4 ± 0.3 mmol/L. The Daily water consumption ([2]; in 10 days) was 25 ± 3 mL, the Glucose ([2]; in 10 days) was 6.6 ± 0.3 mmol/L and 6.4 ± 0.3 mmol/L and the Glycosylated hemoglobin ([2]; in 10 days) was 5.1 ± 0.1 mol % and 5.0 ± 0.1 mol %. The “Percent of survived rats” value ([2]; in 10 days) was 100%, the Total lipids ([2]; in 10 days) was 10.6 ± 0.6 g/L and 10.5 ± 0.5 g/L and the Tri-glycerides ([2]; in 10 days) was 2.6 ± 0.1 mmol/L. The β-lipoproteins ([2]; in 10 days) was 2.2 ± 0.3 g/L and 2.2 ± 0.4 g/L, the Body mass ([2]; in 20 days) was 180 ± 5 g and the Cholesterol ([2]; in 20 days) was 1.7 ± 0.3 mmol/L and 1.6 ± 0.3 mmol/L. For the same compound, the Daily water consumption ([2]; in 20 days) was 20 ± 3 mL and 19 ± 3 mL, the Glucose ([2]; in 20 days) was 6.4 ± 0.2 mmol/L and 6.3 ± 0.2 mmol/L and the Glycosylated hemoglobin ([2]; in 20 days) was 6.2 ± 0.2 mol % and 6.1 ± 0.2 mol %. For the same compound, the “Percent of survived rats” value ([2]; in 20 days) was 80%, the Total lipids ([2]; in 20 days) was 11.6 ± 1.2 g/L and 11.5 ± 1.0 g/L and the Tri-glycerides ([2]; in 20 days) was 1.6 ± 0.1 mmol/L and 1.6 ± 0.2 mmol/L. For the same compound, the β-lipoproteins ([2]; in 20 days) was 2.2 ± 0.3 g/L and 2.2 ± 0.4 g/L.
`CCOC(=O)c1c(CN2CCCC2)n(C)c2cc(-c3cccnc3)c(O)cc12` [MC-207, 1-methyl-2-pyrrolidinyl-1-methyl-3-carbethoxy-5-hydroxy-6-(pyridine-3-yl)indole] was tested, and the “Glucose content, mmol/l, in 10 days” value ([1]; rat, in vivo) was 5.5 ± 0.2 mmol/L, the “Glucose content, mmol/l, in 20 days” value ([1]; rat, in vivo) was 5.0 ± 0.3 mmol/L and the Body mass ([2]; in 10 days) was 186 ± 10 g. It also gave a Cholesterol ([2]; in 10 days) of 2.5 ± 0.3 mmol/L, a Daily water consumption ([2]; in 10 days) of 24 ± 5 mL and a Glucose ([2]; in 10 days) of 5.5 ± 0.3 mmol/L. For the same compound, the Glycosylated hemoglobin ([2]; in 10 days) was 5.1 ± 0.3 mol %, the “Percent of survived rats” value ([2]; in 10 days) was 100% and the Total lipids ([2]; in 10 days) was 10.2 ± 0.5 g/L. It also gave a Tri-glycerides ([2]; in 10 days) of 2.5 ± 0.2 mmol/L, a β-lipoproteins ([2]; in 10 days) of 2.0 ± 0.2 g/L and a Body mass ([2]; in 20 days) of 182 ± 10 g. The Cholesterol ([2]; in 20 days) was 1.5 ± 0.2 mmol/L, the Daily water consumption ([2]; in 20 days) was 20 ± 5 mL and the Glucose ([2]; in 20 days) was 5.0 ± 0.2 mmol/L. For the same compound, the Glycosylated hemoglobin ([2]; in 20 days) was 5.0 ± 0.3 mol %, the “Percent of survived rats” value ([2]; in 20 days) was 90% and the Total lipids ([2]; in 20 days) was 10.2 ± 0.3 g/L. The Tri-glycerides ([2]; in 20 days) was 1.8 ± 0.2 mmol/L and the β-lipoproteins ([2]; in 20 days) was 2.1 ± 0.2 g/L.
`CCOC(=O)c1c(CN(C)C)n(C)c2cc(-c3cccnc3)c(O)c(CN3CCCC3)c12` [MC-211, 1-methyl-2-dimethylaminomethyl-3-carbethoxy-4-pyrrolidinomethyl-5-hydroxy-6-(pyridine-3-yl)indole trihydrochloride] was tested, and the “Glucose content, mmol/l, in 10 days” value [1, 4] was 5.0 ± 0.2 mmol/L and the “Glucose content, mmol/l, in 20 days” value [1, 5] was 4.8 ± 0.2 mmol/L.
In the case of `CCOC(=O)c1c(C[S+]([O-])c2ccccc2)n(C)c2cc(Br)c(O)cc12` (centres unmarked) [MC-225, 1-methyl-2-phenylsulfinylmethyl-3-carbethoxy-5-hydroxy-6-bromoindole], the “Glucose content, mmol/l, in 10 days” value [1, 4] is reported as 8.2 ± 0.5 mmol/L and the “Glucose content, mmol/l, in 20 days” value [1, 5] is reported as 7.9 ± 0.4 mmol/L.
In the case of `CCOC(=O)c1c(CN(C)C)n(C)c2cc(-c3cccnc3)c3c(c12)CN(C)CO3`, the “Glucose content, mmol/l, in 10 days” value [1, 4] is reported as 5.6 ± 0.3 mmol/L and the “Glucose content, mmol/l, in 20 days” value [1, 5] is reported as 5.4 ± 0.5 mmol/L.
`CCOC(=O)c1c(CN(C)C)n(C)c2cc(-c3cccnc3)c(O)cc12` [MC-208, 1-methyl-2-dimethylaminomethyl-3-carbethoxy-5-hydroxy-6-(pyridine-3-yl)indole] was tested, and the “Glucose content, mmol/l, in 10 days” value [1, 4] was 9.8 ± 0.4 mmol/L and the “Glucose content, mmol/l, in 20 days” value [1, 5] was 9.5 ± 0.4 mmol/L.
With `CCOC(=O)c1c(C[S+]([O-])Cc2ccccc2OC)n(C)c2cc(Br)c(O)c(CNC(=N)N)c12` (centres unmarked) [MC-218, 1-methyl-2-(o-methoxy)-benzylsulfinylmethyl-3-carbethoxy-4-guanidinomethyl-5-hydroxy-6-bromoindole hydrochloride] the “Glucose content, mmol/l, in 10 days” value [1, 4] was 7.2 ± 0.4 mmol/L and the “Glucose content, mmol/l, in 20 days” value [1, 5] was 7.1 ± 0.4 mmol/L.
`CCOC(=O)c1c(CSc2ccccc2)n(-c2ccc(C)cc2)c2cc(Br)c(O)c(CN(C)C)c12` [MC-204, 1-p-toluyl-2-phenylthiomethyl-3-carbethoxy-4-dimethylaminomethyl-5-hydroxy-6-bromoindole] was tested, and the “Glucose content, mmol/l, in 10 days” value [1, 4] was 6.4 ± 0.3 mmol/L and the “Glucose content, mmol/l, in 20 days” value [1, 5] was 6.2 ± 0.3 mmol/L.
For `CCOC(=O)c1c(CS(=O)(=O)c2ccccc2)n(C)c2cc(-c3cccnc3)c(O)c(CNC)c12` [MC-214, 1-methyl-2-phenylsulfonylmethyl-3-carbethoxy-4-methylaminomethyl-5-hydroxy-6-pyridinyl-3 indole dihydrochloride], the “Glucose content, mmol/l, in 10 days” value [1, 4] was 10.2 ± 0.8 mmol/L and the “Glucose content, mmol/l, in 20 days” value [1, 5] was 9.9 ± 0.7 mmol/L.
`CCOC(=O)c1c(CS(=O)(=O)c2ccccc2)n(C)c2cc(-c3cccnc3)c(O)c(CN(C)C)c12` [MC-210, 1-methyl-2-phenylsulfonylmethyl-3-carbethoxy-4-dimethylaminomethyl-5-hydroxy-6-(pyridine-3-yl)indole] was tested, and the “Glucose content, mmol/l, in 10 days” value [1, 4] was 5.4 ± 0.2 mmol/L and the “Glucose content, mmol/l, in 20 days” value [1, 5] was 5.3 ± 0.3 mmol/L.
With `CCOC(=O)c1c(CSCc2ccccc2)n(C)c2cc(Br)c(O)c(CN(C)C)c12` [MC-206, 1-methyl-2-benzylthiomethyl-3-carbethoxy-4-dimethylaminomethyl-5-hydroxy-6-bromoindole] the “Glucose content, mmol/l, in 10 days” value [1, 4] was 11.2 ± 0.7 mmol/L and the “Glucose content, mmol/l, in 20 days” value [1, 5] was 10.8 ± 0.6 mmol/L.
